Measurements from article PMC8976160 (Drug Design, Development and Therapy, 2022).

Biological target: T1, human Glx-I enzyme (Homo sapiens, UniProt Q04760)
T1 sequence (Q04760 2-184 limits assumed): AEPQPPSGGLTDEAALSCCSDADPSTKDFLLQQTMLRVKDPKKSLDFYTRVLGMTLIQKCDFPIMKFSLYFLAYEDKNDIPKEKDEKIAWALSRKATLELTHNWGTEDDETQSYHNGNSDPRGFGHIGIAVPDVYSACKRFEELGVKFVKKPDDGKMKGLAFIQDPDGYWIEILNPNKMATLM
Assay: Glx-I inhibitory activity in vitro
Format: biochemical
Settings: for inhibition at 25 µM: read-out: % Inhibition at 25 μM

In the case of `Nc1ccc(/N=N/c2ccc(S(N)(=O)=O)cc2)c2cc(O)ccc12` [Compound 13, (E)-4-((4-amino-7-hydroxynaphthalen-1-yl)diazenyl)benzenesulfonamide], the IC50 is reported as 39.1 ± 5.31 µM and the inhibition at 25 µM is reported as 46.2%.

For `NS(=O)(=O)c1ccc(/N=N/c2ccc(O)c(C(=O)O)c2)cc1` [Compound 26, (E)-2-hydroxy-5-((4-sulfamoylphenyl)diazenyl)benzoic acid], the IC50 was 0.39 ± 0.03 µM and the inhibition at 25 µM was 97.4%.
